Measurements from article PMC3210601, “New Tetromycin Derivatives with Anti-Trypanosomal and Protease Inhibitory Activities” (Marine Drugs, 2011).
Several values for one entry are separate records, joined by “and”; a condition that tells them apart may be missing. Identical values can stand only once. Like-named read-outs stand apart in the source and are kept apart here.

What was measured:
[1] = system: Trypanosoma brucei subsp. brucei; assay: Anti-Trypanosoma Alamar Blue assay (trypomastigotes, strain TC 221)
[2] = system: Leishmania major promastigotes; assay: Anti-Leishmania Alamar Blue assay (promastigotes); details: read-out: IC50 L. major
[3] = Cytotoxicity Alamar Blue assay, 293T kidney epithelial cells; details: human
falcipain-2 = falcipain-2 (Plasmodium falciparum, UniProt Q8I6U4); assay: Fluorometric protease inhibition assay, falcipain-2; type: biochemical, P. falciparum; details: for Ki: read-out: FP Ki; for FP k2nd: time-dependent inhibition, k2nd = ki/Ki
Chain of falcipain-2 (Q8I6U4 244-484): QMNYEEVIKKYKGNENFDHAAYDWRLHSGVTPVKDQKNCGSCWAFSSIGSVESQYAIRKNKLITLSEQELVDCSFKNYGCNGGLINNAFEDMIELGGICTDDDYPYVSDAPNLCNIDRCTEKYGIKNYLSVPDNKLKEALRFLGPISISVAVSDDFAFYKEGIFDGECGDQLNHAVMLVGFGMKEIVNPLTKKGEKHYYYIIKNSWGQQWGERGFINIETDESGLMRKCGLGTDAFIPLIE

rhodesain = rhodesain (Trypanosoma brucei rhodesiense, UniProt Q95PM0); assay: Fluorometric protease inhibition assay, rhodesain; type: biochemical, T. brucei rhodesiense; details: for Ki: read-out: RD Ki; for RD k2nd: time-dependent inhibition, k2nd = ki/Ki
Chain of rhodesain (Q95PM0 entry or part of it): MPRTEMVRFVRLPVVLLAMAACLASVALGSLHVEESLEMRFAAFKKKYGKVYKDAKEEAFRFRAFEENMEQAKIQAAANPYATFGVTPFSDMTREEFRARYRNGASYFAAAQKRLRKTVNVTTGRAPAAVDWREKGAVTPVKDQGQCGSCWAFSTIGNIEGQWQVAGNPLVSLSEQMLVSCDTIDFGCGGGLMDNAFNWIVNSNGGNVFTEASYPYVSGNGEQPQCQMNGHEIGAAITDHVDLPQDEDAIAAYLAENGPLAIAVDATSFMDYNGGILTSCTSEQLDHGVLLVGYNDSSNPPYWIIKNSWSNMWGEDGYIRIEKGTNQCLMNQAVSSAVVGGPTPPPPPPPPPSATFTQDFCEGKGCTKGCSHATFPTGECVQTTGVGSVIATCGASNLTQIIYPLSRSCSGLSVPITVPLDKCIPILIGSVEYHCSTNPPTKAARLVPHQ

cathepsin L = cathepsin L (Homo sapiens, UniProt P07711); assay: Fluorometric protease inhibition assay, cathepsin L; type: biochemical, mammalian; details: for Ki: read-out: CL Ki; for CL k2nd: time-dependent inhibition, k2nd = ki/Ki
Chain of cathepsin L (P07711 114-333, species assumed): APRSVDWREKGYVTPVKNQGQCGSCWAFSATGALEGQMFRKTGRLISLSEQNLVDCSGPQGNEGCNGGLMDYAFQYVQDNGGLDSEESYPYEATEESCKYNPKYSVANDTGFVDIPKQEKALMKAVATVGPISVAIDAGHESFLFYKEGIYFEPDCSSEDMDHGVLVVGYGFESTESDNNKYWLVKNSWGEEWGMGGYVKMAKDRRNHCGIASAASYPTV

cathepsin B = cathepsin B (Homo sapiens, UniProt P07858); assay: Fluorometric protease inhibition assay, cathepsin B; type: biochemical, mammalian; details: for Ki: non-time dependent, Dixon equation, corrected to zero substrate, substrate 100 μM, pH 6.2, 25 °C, read-out: CB Ki
SARS-CoV PL^pro = SARS-CoV PL^pro (Severe acute respiratory syndrome coronavirus, UniProt P0C6X7); assay: biochemical
[4] = mouse
[5] = 48 h, read-out: IC50 T. brucei brucei (48 h)
[6] = 72 h, read-out: IC50 T. brucei brucei (72 h)
[7] = progress curves, inhibitor 0-16.7 μM (Figure 6)

Row | SMILES | IC50 [1, 5] [µM] | IC50 [1, 6] [µM] | IC50 [2] [µM] | IC50 at 24 h ([3]; 293T kidney epithelial cells) [µM] | Ki (falcipain-2) [µM] | FP k2nd (falcipain-2) | ki (rate constant of inhibition) rhodesain (rhodesain; Figure 8, data from two independent assays) [min⁻¹] | Ki (rhodesain) [µM] | RD k2nd (rhodesain) | Ki (cathepsin L) [µM] | CL k2nd (cathepsin L) | Ki (cathepsin B) | Ki (SARS-CoV PL^pro) [µM] | IC50 at 24 h [4] [µM] | mode of inhibition with respect to the substrate, rhodesain (rhodesain; Ki determined at three different substrate concentrations) | time dependence of inhibition, rhodesain (rhodesain; [7]) | IC50 at 24 h [3] [µM] | time dependence of inhibition, cathepsin B (cathepsin B; [7])
1 | COc1cc(C)c(C(=O)NC2C(C)OC(OC3CC(C)=CC4C3CC(C)C3/C(C)=C\CC/C(C)=C/C5(C)C=C(C(=O)O)C(C)CC56OC(=O)C(=C6O)C(=O)C43C)C(O)C2(C)O)c(O)c1 (stereo not drawn) [Compound 1, Tetromycin 1] | 29.3 | 31.7 | > 100 | > 100 | – | – | – | – | – | – | – | – | – | – | – | – | – | –
2 | COc1cc(C)c(C(=O)OC2C(C)OC(OC3CC(C)=CC4C3CC(C)C3/C(C)=C\CC/C(C)=C/C5(C)C=C(C(=O)O)C(C)CC56OC(=O)C(=C6O)C(=O)C43C)C(O)C2O)c(OC)c1 (stereo not drawn) [Compound 2, Tetromycin 2] | 45.4 | 80.3 | > 100 | > 100 | – | – | – | – | – | – | – | – | – | – | – | – | – | –
3 | COc1cc(O)cc(C)c1C(=O)OC1C(C)OC(OC2CC=C(C)C3C2CC(C)C2/C(C)=C\CC/C(C)=C/C4C=C(C(=O)O)C(C)CC45OC(=O)C(=C5O)C(=O)C32C)C(O)C1O (stereo not drawn) [Compound 3, Tetromycin 3] | 26.9 | 30.4 | 36.8 | 33.4 | 1.65 ± 0.25 | 617 ± 9 M⁻¹ min⁻¹ | 0.042 | 2.1 ± 0.9 | 36,600 ± 1590 M^−1 min^−1 | 15 ± 1.95 | 14,977 ± 2005 M^−1 min^−1 | 0.57 ± 0.04 µM | – | – | – | – | – | –
4 | COc1cc(O)cc(C)c1C(=O)OC1C(C)OC(OC2CC(C)=CC3C2CC(C)C2/C(C)=C\CC/C(C)=C/C4(C)C=C(C(=O)O)C(C)CC45OC(=O)C(=C5O)C(=O)C32C)C(O)C1O (stereo not drawn) [Compound 4, Tetromycin 4] | 35.9 | 41.6 | > 100 | 58.6 | 3.1 ± 0.2 | 1836 ± 108 M⁻¹ min⁻¹ | – | 4 ± 0.3 | 8354 ± 1562 M⁻¹ min⁻¹ | 22.4 ± 0.8 | 14,700 ± 1000 M^−1 min^−1 | 1.6 ± 0.1 µM | 40 ± 6.5 | – | – | – | – | –
5 | CC1=CC2(C)/C=C(\C)CC/C=C(/C)C3C(C)=CC4C(O)CCC(C)C4C3(C)C(=O)C3=C(O)C2(CC1C)OC3=O (stereo not drawn) [Compound 5, Tetromycin B] | 30.9 | 34.2 | > 100 | – | 1.42 ± 0.01 | 15,540 ± 1295 M^−1 min^−1 | – | 0.62 ± 0.03 | 14,539 ± 1949 M^−1 min^−1 | 32.5 ± 0.05 | 1576 ± 413 M⁻¹ min⁻¹ | 1.5 µM and 1.59 µM | 69.6 ± 7.2 | 20.2 | competitive inhibition | time-dependent inhibition | 71.8 | non-time dependent inhibition
